{"source": "patent US20120171229A1", "about": "“SYNTHETIC NANOCARRIERS WITH REACTIVE GROUPS THAT RELEASE BIOLOGICALLY ACTIVE AGENTS” (Selecta Biosciences, Inc., priority 2010, published 2012)", "assay": "Release by thiol addition and hydride reduction (TLC)", "type": "physicochemical", "details": "water with a drop of acetic acid, 2 hours", "method": "A portion of the amide was dissolved in water with a drop of acetic acid. This yellow solution was divided into two portions. One portion was treated with sodium dithionite, a reducing agent, and the other was treated with 2-mercaptoethanol. After 2 hours, the samples were diluted with water and extracted with ethyl acetate."}
{"smiles": "CN1CCN(C(=O)CC(C)(C)C2=CC(=O)c3ccccc3C2=O)CC1", "note": "[Example 8]", "values": [{"measurement": "Release by thiol addition, TLC result", "setting": "2-mercaptoethanol", "result": "the amide had been consumed with a colorless, non-polar product (lactone) being formed"}, {"measurement": "Release by hydride reduction, TLC result", "setting": "sodium dithionite", "result": "the amide had been consumed with a colorless, non-polar product (lactone) being formed"}]}
